Data: PubChem BioAssay AID1918954 (Molecular Pharmacology Branch, DTP, NCI, 2023)
Where “and” joins values, the source holds several entries; their conditions need not be identical. Equal entries are not always repeated.

Test system: MDA-MB-468 complex spheroids with HUVEC/MSC, viability
Experiment: Anticancer human tumor MDA-MB-468 cell line growth inhibition;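 further: spheroids exposed to agents for seven days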;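 on viability, T/C: 100% = DMSO vehicle control viability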
Details: for viability, T/C: stronger effect = lower value
Method in brief: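 Multicellular complex spheroids of tumor cells with human endothelial cells (HUVEC) and mesenchymal stem cells; the LSD1 inhibitor iadademstat was combined with standard-of-care or investigational agents. Top concentration at or near clinical Cmax, half-log dilutions; final DMSO ≤0.25%.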

[1] = curve of first compound, second compound 0.1 µM
[2] = curve of first compound, second compound 0.316 µM
[3] = curve of first compound, second compound 1 µM
[4] = curve of first compound, second compound 3.16 µM
[5] = curve of first compound, second compound 10 µM
[6] = second compound 0.1 µM, first compound 0.000316 µM
[7] = second compound 0.1 µM, first compound 0.001 µM
[8] = second compound 0.1 µM, first compound 0.00316 µM
[9] = second compound 0.1 µM, first compound 0.01 µM
[10] = second compound 0.1 µM, first compound 0.0316 µM
[11] = second compound 0.1 µM, first compound 0.1 µM
[12] = second compound 0.316 µM, first compound 0.000316 µM
[13] = second compound 0.316 µM, first compound 0.001 µM
[14] = second compound 0.316 µM, first compound 0.00316 µM
[15] = second compound 0.316 µM, first compound 0.01 µM
[16] = second compound 0.316 µM, first compound 0.0316 µM
[17] = second compound 0.316 µM, first compound 0.1 µM
[18] = second compound 1 µM, first compound 0.000316 µM
[19] = second compound 1 µM, first compound 0.001 µM
[20] = second compound 1 µM, first compound 0.00316 µM
[21] = second compound 1 µM, first compound 0.01 µM
[22] = second compound 1 µM, first compound 0.0316 µM
[23] = second compound 1 µM, first compound 0.1 µM
[24] = second compound 3.16 µM, first compound 0.000316 µM
[25] = second compound 3.16 µM, first compound 0.001 µM
[26] = second compound 3.16 µM, first compound 0.00316 µM
[27] = second compound 3.16 µM, first compound 0.01 µM
[28] = second compound 3.16 µM, first compound 0.0316 µM
[29] = second compound 3.16 µM, first compound 0.1 µM
[30] = second compound 10 µM, first compound 0.000316 µM
[31] = second compound 10 µM, first compound 0.001 µM
[32] = second compound 10 µM, first compound 0.00316 µM
[33] = second compound 10 µM, first compound 0.01 µM
[34] = second compound 10 µM, first compound 0.0316 µM
[35] = second compound 10 µM, first compound 0.1 µM
[36] = second compound 0.1 µM, first compound 0.316 µM
[37] = second compound 0.1 µM, first compound 1 µM
[38] = second compound 0.1 µM, first compound 3.16 µM
[39] = second compound 0.1 µM, first compound 10 µM
[40] = second compound 0.316 µM, first compound 0.316 µM
[41] = second compound 0.316 µM, first compound 1 µM
[42] = second compound 0.316 µM, first compound 3.16 µM
[43] = second compound 0.316 µM, first compound 10 µM
[44] = second compound 1 µM, first compound 0.316 µM
[45] = second compound 1 µM, first compound 1 µM
[46] = second compound 1 µM, first compound 3.16 µM
[47] = second compound 1 µM, first compound 10 µM
[48] = second compound 3.16 µM, first compound 0.316 µM
[49] = second compound 3.16 µM, first compound 1 µM
[50] = second compound 3.16 µM, first compound 3.16 µM
[51] = second compound 3.16 µM, first compound 10 µM
[52] = second compound 10 µM, first compound 0.316 µM
[53] = second compound 10 µM, first compound 1 µM
[54] = second compound 10 µM, first compound 3.16 µM
[55] = second compound 10 µM, first compound 10 µM

## CC[C@@]1(O)C(=O)OCc2c1cc1n(c2=O)Cc2cc3c(CN(C)C)c(O)ccc3nc2-1 + NC1CC1c1ccc(-c2cccc(O)c2)cc1
[1]
  IC50: 1.32 nM
[2]
  IC50: 1.2 nM
[3]
  IC50: 1.15 nM
[4]
  IC50: 1.05 nM
[5]
  IC50: 0.731 nM
[6]
  viability, T/C: 95.6%
[7]
  viability, T/C: 61.8%
[8]
  viability, T/C: 12.6%
[9]
  viability, T/C: 7.83%
[10]
  viability, T/C: 4.57%
[11]
  viability, T/C: 4.01%
[12]
  viability, T/C: 97.4%
[13]
  viability, T/C: 57.1%
[14]
  viability, T/C: 12.2%
[15]
  viability, T/C: 7.26%
[16]
  viability, T/C: 4.33%
[17]
  viability, T/C: 3.89%
[18]
  viability, T/C: 90.9%
[19]
  viability, T/C: 55.3%
[20]
  viability, T/C: 12.1%
[21]
  viability, T/C: 7.25%
[22]
  viability, T/C: 4.02%
[23]
  viability, T/C: 3.43%
[24]
  viability, T/C: 98%
[25]
  viability, T/C: 51.8%
[26]
  viability, T/C: 12.3%
[27]
  viability, T/C: 6.86%
[28]
  viability, T/C: 3.9%
[29]
  viability, T/C: 2.97%
[30]
  viability, T/C: 67.6%
[31]
  viability, T/C: 43.5%
[32]
  viability, T/C: 13.9%
[33]
  viability, T/C: 7.24%
[34]
  viability, T/C: 4.44%
[35]
  viability, T/C: 3.53%

## CC(C)c1c(-c2ccccc2)nc2c(C#N)c[nH]n2c1=O + NC1CCC(NC2CC2c2ccccc2)CC1
[1]
  IC50: > 10000 nM
[2]
  IC50: > 10000 nM
[3]
  IC50: > 10000 nM
[4]
  IC50: > 10000 nM
[5]
  IC50: > 10000 nM
[10]
  viability, T/C: 96.1%
[11]
  viability, T/C: 109%
[36]
  viability, T/C: 109%
[37]
  viability, T/C: 108%
[38]
  viability, T/C: 105%
[39]
  viability, T/C: 85.4%
[16]
  viability, T/C: 99.2%
[17]
  viability, T/C: 101%
[40]
  viability, T/C: 84.3%
[41]
  viability, T/C: 99.5%
[42]
  viability, T/C: 102%
[43]
  viability, T/C: 99.5%
[22]
  viability, T/C: 102%
[23]
  viability, T/C: 103%
[44]
  viability, T/C: 96.3%
[45]
  viability, T/C: 102%
[46]
  viability, T/C: 101%
[47]
  viability, T/C: 85.8%
[28]
  viability, T/C: 82.2%
[29]
  viability, T/C: 102%
[48]
  viability, T/C: 77.7%
[49]
  viability, T/C: 95.4%
[50]
  viability, T/C: 50.7%
[51]
  viability, T/C: 62.5%
[34]
  viability, T/C: 74%
[35]
  viability, T/C: 66.7%
[52]
  viability, T/C: 70.2%
[53]
  viability, T/C: 57.2%
[54]
  viability, T/C: 66%
[55]
  viability, T/C: 70.4%

## CC1(C)CCC(CN2CCN(c3ccc(C(=O)NS(=O)(=O)c4ccc(NCC5CCOCC5)c([N+](=O)[O-])c4)c(Oc4cnc5[nH]ccc5c4)c3)CC2)=C(c2ccc(Cl)cc2)C1 + NC1CCC(NC2CC2c2ccccc2)CC1
[1]
  IC50: 5550 nM
[2]
  IC50: 5700 nM
[3]
  IC50: 3810 nM
[4]
  IC50: 4460 nM
[5]
  IC50: 4240 nM
[10]
  viability, T/C: 92.8%
[11]
  viability, T/C: 87%
[36]
  viability, T/C: 103%
[37]
  viability, T/C: 98.6%
[38]
  viability, T/C: 70%
[39]
  viability, T/C: 29.1%
[16]
  viability, T/C: 99.8%
[17]
  viability, T/C: 119%
[40]
  viability, T/C: 128%
[41]
  viability, T/C: 87.6%
[42]
  viability, T/C: 78%
[43]
  viability, T/C: 26.4%
[22]
  viability, T/C: 73.9%
[23]
  viability, T/C: 113%
[44]
  viability, T/C: 94.8%
[45]
  viability, T/C: 79.1%
[46]
  viability, T/C: 54%
[47]
  viability, T/C: 34.8%
[28]
  viability, T/C: 87.9%
[29]
  viability, T/C: 95.5%
[48]
  viability, T/C: 78.1%
[49]
  viability, T/C: 76.6%
[50]
  viability, T/C: 61.2%
[51]
  viability, T/C: 27.2%
[34]
  viability, T/C: 71.2%
[35]
  viability, T/C: 68.7%
[52]
  viability, T/C: 67.1%
[53]
  viability, T/C: 65.3%
[54]
  viability, T/C: 58.1%
[55]
  viability, T/C: 27.8%

## O=C(C=Cc1cccc(S(=O)(=O)Nc2ccccc2)c1)NO + NC1CC1c1ccc(-c2cccc(O)c2)cc1
[1]
  IC50: 59.9 nM
[2]
  IC50: 44.2 nM
[3]
  IC50: 53.3 nM
[4]
  IC50: 49.8 nM
[5]
  IC50: 26.2 nM
Second compound 0.1 µM, first compound 0.00949 µM
  viability, T/C: 88.7%
Second compound 0.1 µM, first compound 0.03 µM
  viability, T/C: 74.8%
Second compound 0.1 µM, first compound 0.0949 µM
  viability, T/C: 25.8%
Second compound 0.1 µM, first compound 0.3 µM
  viability, T/C: 2.15%
Second compound 0.1 µM, first compound 0.949 µM
  viability, T/C: 0.17%
Second compound 0.1 µM, first compound 3 µM
  viability, T/C: 106%
Second compound 0.316 µM, first compound 0.00949 µM
  viability, T/C: 96.3%
Second compound 0.316 µM, first compound 0.03 µM
  viability, T/C: 59.3%
Second compound 0.316 µM, first compound 0.0949 µM
  viability, T/C: 23.1%
Second compound 0.316 µM, first compound 0.3 µM
  viability, T/C: 2.07%
Second compound 0.316 µM, first compound 0.949 µM
  viability, T/C: 0.17%
Second compound 0.316 µM, first compound 3 µM
  viability, T/C: 101%
Second compound 1 µM, first compound 0.00949 µM
  viability, T/C: 92.9%
Second compound 1 µM, first compound 0.03 µM
  viability, T/C: 70.3%
Second compound 1 µM, first compound 0.0949 µM
  viability, T/C: 25.5%
Second compound 1 µM, first compound 0.3 µM
  viability, T/C: 2.36%
Second compound 1 µM, first compound 0.949 µM
  viability, T/C: 0.14%
Second compound 1 µM, first compound 3 µM
  viability, T/C: 90.9%
Second compound 3.16 µM, first compound 0.00949 µM
  viability, T/C: 83.1%
Second compound 3.16 µM, first compound 0.03 µM
  viability, T/C: 64.5%
Second compound 3.16 µM, first compound 0.0949 µM
  viability, T/C: 23%
Second compound 3.16 µM, first compound 0.3 µM
  viability, T/C: 2.23%
Second compound 3.16 µM, first compound 0.949 µM
  viability, T/C: 0.16%
Second compound 3.16 µM, first compound 3 µM
  viability, T/C: 101%
Second compound 10 µM, first compound 0.00949 µM
  viability, T/C: 67.7%
Second compound 10 µM, first compound 0.03 µM
  viability, T/C: 47.7%
Second compound 10 µM, first compound 0.0949 µM
  viability, T/C: 17.7%
Second compound 10 µM, first compound 0.3 µM
  viability, T/C: 1.86%
Second compound 10 µM, first compound 0.949 µM
  viability, T/C: 0.19%
Second compound 10 µM, first compound 3 µM
  viability, T/C: 79.1%

## O=C(c1cc(Cc2n[nH]c(=O)c3ccccc23)ccc1F)N1CCN(C(=O)C2CC2)CC1
Compound 0.0316 µM
  viability, T/C: 94.3% and 76.8%
Compound 0.1 µM
  viability, T/C: 73.5% and 79.1%
Compound 0.316 µM
  viability, T/C: 75% and 69.3%
Compound 1 µM
  viability, T/C: 52.9% and 52.6%
Compound 3.16 µM
  viability, T/C: 21.7% and 20.2%
Compound 10 µM
  viability, T/C: 22.6% and 21.4%
Curve of compound
  IC50: 989 nM and 1050 nM

## CC[C@@]1(O)C(=O)OCc2c1cc1n(c2=O)Cc2cc3c(CN(C)C)c(O)ccc3nc2-1 + NC1CCC(NC2CC2c2ccccc2)CC1
[1]
  IC50: 0.706 nM
[2]
  IC50: 0.777 nM
[3]
  IC50: 0.752 nM
[4]
  IC50: 0.62 nM
[5]
  IC50: < 0.316 nM
[6]
  viability, T/C: 78%
[7]
  viability, T/C: 37.9%
[8]
  viability, T/C: 13.1%
[9]
  viability, T/C: 7.64%
[10]
  viability, T/C: 6.65%
[11]
  viability, T/C: 4.69%
[12]
  viability, T/C: 83.4%
[13]
  viability, T/C: 40.8%
[14]
  viability, T/C: 12.7%
[15]
  viability, T/C: 8.5%
[16]
  viability, T/C: 4.51%
[17]
  viability, T/C: 4.68%
[18]
  viability, T/C: 89.1%
[19]
  viability, T/C: 37.3%
[20]
  viability, T/C: 12.6%
[21]
  viability, T/C: 8.19%
[22]
  viability, T/C: 6.26%
[23]
  viability, T/C: 5.19%
[24]
  viability, T/C: 64.5%
[25]
  viability, T/C: 40%
[26]
  viability, T/C: 15.2%
[27]
  viability, T/C: 11.4%
[28]
  viability, T/C: 5.77%
[29]
  viability, T/C: 6.13%
[30]
  viability, T/C: 49.7%
[31]
  viability, T/C: 40.8%
[32]
  viability, T/C: 14.1%
[33]
  viability, T/C: 8.51%
[34]
  viability, T/C: 6.13%
[35]
  viability, T/C: 6.82%
